Measured values published in ChEMBL document CHEMBL1129243, “(S)-(+)-2-(3'-carboxybicyclo[1.1.1]pentyl)-glycine, a structurally new group I metabotropic glutamate receptor antagonist” (J Med Chem, 1996).

Assays:
Assay type in all cases: functional, cell-based
[1] = target: T1, Metabotropic glutamate receptor 5 (Homo sapiens, UniProt P41594); assay: The compound was tested for effect on second messenger formation in BHK cells expressing mGluR5a
[2] = target: T1, Metabotropic glutamate receptor 5; assay: The compound was tested for effect on second messenger formation in BHK cells expressing mGluR5a at half maximal concentration
[3] = target: T2, Metabotropic glutamate receptor 2 (Homo sapiens, UniProt Q14416); assay: The compound was tested for effect on second messenger formation in BHK cells expressing mGluR2
T2 sequence (Q14416 whole entry): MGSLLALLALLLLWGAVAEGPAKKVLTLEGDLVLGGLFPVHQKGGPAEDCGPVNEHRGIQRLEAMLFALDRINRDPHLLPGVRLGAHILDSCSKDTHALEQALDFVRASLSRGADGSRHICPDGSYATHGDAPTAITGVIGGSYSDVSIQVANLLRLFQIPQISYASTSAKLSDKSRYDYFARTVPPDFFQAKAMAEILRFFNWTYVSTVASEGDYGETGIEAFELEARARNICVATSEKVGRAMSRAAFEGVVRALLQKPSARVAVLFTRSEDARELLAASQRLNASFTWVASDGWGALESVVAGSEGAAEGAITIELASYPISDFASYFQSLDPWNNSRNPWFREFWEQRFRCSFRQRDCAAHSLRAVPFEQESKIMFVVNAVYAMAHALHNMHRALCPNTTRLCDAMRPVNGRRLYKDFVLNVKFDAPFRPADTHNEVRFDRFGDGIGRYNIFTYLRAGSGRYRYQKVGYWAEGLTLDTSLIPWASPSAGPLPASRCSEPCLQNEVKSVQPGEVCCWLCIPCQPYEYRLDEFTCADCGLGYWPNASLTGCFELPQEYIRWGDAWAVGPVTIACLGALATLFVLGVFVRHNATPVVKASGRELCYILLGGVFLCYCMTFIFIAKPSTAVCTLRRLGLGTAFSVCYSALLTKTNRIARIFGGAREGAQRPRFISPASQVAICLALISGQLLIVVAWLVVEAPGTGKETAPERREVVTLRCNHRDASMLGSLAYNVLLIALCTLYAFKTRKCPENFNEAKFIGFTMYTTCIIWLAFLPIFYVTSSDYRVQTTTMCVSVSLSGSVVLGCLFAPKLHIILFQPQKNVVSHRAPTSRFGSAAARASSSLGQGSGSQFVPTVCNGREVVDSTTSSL

[4] = target: T3, Metabotropic glutamate receptor 4 (Homo sapiens, UniProt Q14833); assay: The compound was tested for effect on second messenger formation in BHK cells expressing mGluR4a
T3 sequence (Q14833 whole entry): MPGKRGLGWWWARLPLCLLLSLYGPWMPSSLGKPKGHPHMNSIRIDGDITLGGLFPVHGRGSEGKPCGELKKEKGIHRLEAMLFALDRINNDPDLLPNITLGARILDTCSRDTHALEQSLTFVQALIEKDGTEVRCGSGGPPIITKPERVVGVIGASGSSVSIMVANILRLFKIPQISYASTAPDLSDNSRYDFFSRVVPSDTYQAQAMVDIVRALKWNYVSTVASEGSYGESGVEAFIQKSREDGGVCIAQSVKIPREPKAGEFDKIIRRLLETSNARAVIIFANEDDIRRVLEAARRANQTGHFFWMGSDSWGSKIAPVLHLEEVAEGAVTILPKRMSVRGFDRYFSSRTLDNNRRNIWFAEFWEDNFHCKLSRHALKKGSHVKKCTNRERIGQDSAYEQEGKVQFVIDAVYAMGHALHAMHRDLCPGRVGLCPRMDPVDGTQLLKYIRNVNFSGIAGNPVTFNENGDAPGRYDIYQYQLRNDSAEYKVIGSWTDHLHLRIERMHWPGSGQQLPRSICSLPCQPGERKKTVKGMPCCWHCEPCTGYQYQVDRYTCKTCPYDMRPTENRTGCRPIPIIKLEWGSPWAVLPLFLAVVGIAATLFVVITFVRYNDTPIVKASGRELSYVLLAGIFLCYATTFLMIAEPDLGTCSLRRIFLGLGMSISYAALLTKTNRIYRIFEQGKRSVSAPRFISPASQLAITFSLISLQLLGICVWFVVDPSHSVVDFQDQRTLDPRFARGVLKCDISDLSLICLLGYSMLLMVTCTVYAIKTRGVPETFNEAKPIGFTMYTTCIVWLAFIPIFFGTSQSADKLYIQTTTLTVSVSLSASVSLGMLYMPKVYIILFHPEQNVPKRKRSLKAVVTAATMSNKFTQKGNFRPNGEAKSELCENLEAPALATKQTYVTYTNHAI

[5] = target: T2, Metabotropic glutamate receptor 2; assay: The compound was tested for inhibitory effect on second messenger formation in BHK cells expressing mGluR2
[6] = target: T1, Metabotropic glutamate receptor 5; assay: The compound was tested for inhibitory effect on second messenger formation in BHK cells expressing mGluR5a
[7] = target: T3, Metabotropic glutamate receptor 4; assay: The compound was tested for inhibitory effect on second messenger formation in BHK cells expressing mGluR4a

T1 sequence (P41594 whole entry): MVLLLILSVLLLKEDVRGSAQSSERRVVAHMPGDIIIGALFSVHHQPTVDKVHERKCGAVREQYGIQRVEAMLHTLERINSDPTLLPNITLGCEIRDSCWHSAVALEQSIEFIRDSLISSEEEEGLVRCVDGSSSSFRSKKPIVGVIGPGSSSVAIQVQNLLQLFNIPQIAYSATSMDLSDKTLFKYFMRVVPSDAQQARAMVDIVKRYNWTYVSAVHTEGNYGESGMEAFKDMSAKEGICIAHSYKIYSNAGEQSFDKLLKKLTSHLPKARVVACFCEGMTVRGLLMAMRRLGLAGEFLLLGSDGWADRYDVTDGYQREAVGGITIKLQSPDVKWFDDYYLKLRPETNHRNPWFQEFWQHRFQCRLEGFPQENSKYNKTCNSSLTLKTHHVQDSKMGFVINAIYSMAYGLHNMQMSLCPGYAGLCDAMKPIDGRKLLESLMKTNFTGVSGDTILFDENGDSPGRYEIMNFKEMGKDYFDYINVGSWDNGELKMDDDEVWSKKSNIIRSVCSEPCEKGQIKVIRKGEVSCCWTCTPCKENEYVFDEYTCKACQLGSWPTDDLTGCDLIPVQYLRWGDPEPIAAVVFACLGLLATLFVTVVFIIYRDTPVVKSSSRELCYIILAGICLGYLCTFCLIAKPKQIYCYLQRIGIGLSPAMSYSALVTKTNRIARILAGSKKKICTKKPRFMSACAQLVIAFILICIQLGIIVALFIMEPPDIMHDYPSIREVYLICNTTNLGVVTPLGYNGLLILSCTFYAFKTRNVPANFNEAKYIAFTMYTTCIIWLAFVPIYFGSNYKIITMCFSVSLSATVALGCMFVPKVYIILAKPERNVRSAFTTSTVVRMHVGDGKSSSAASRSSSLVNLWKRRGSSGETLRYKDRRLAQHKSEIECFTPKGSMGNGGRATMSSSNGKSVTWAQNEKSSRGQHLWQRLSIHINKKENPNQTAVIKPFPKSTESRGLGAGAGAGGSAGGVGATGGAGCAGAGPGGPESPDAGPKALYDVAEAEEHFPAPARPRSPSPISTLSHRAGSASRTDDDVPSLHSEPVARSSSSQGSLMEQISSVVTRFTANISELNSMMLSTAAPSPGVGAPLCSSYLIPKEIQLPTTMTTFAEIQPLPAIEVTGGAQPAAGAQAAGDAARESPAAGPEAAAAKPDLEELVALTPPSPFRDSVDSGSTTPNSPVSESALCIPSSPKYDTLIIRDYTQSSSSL

Row | EC50 [1] [µM] | EC50 [2] [µM] | EC50 [3] [µM] | EC50 [4] [µM] | IC50 [5] [µM] | IC50 [6] [µM] | IC50 [7] [µM] | SMILES
1 | > 300 | 103 | > 300 | > 300 | > 300 | > 300 | > 300 | N[C@H](C(=O)O)C12CC(C(=O)O)(C1)C2
2 | > 300 | – | > 300 | > 300 | > 300 | > 300 | > 300 | N[C@@H](C(=O)O)C12CC(C(=O)O)(C1)C2
